Test results published in patent US20240277732A1, “COMPOSITIONS AND METHODS FOR TREATING BRAIN-GUT DISORDERS” (Enterin, Inc., priority 2018, published 2024).

Columns and labels:
[1] = tested on: PD population; conditions: short term placebo controlled trial; cited from earlier work
[2] = tested on: individuals with mild constipation; conditions: cited from earlier work
[3] = tested on: patients with PD and constipation; assay: Phase 2 trial Stage 2: bowel function under daily oral dosing (stool diary, PAC-QOL, PAC-SYM); type: in vivo, human; conditions: patients with baseline ≥1 CSBM/week
Description: Following successful screening, all subjects underwent a 14-day run-in period where the degree of constipation was assessed through a validated daily log (Zinsmeister et al. 2013) establishing baseline CSBMs/week. Subjects with an average of <3 CSBMs/week proceeded to dosing.
In Stage 2, 34 patients were evaluated.
The primary efficacy outcome variable was whether or not a subject was a “success” or “failure”. This is an endpoint based on subject diary entries for the “fixed dose” period prior to the endpoint assessment defined as average complete stool frequency increase by 1 or more over baseline, or 3 or more complete spontaneous stools/week. The subject was deemed a “success” if s/he met one or more of the criteria listed above, otherwise the subject was deemed a “failure”. The primary analysis was based on all subjects with a baseline assessment and an assessment at the end of the “fixed-dose” period and was a comparison of the proportion of successes with 0.10 (the null hypothesis corresponding to no treatment effect).

[4] = tested on: myenteric intrinsic primary afferent neurons (IPANs); assay: Whole-cell patch clamp of IPANs, divided hemi-dissection preparation of FVB PD mouse; type: cell-based
Description: Whole-cell Patch Clamp: Whole-cell patch clamp was performed on a hemi-dissected myenteric plexus preparation as previously described.
IPAN excitability: PD model mice have reduced IPAN excitability. To determine the mechanism by which squalamine stimulated intestinal motility, electrophysiological studies on single neurons within the intact myenteric plexus of PD mice and corresponding control animals were conducted using published methods. In this series of studies a mouse α-synuclein knock-out model that expressed four copies of human A53T α-synuclein driven by the endogenous α-synuclein promoter (FVB PD), with the control (FVB control) represented by a strain engineered to express two copies of the normal human α-synuclein protein, was used.
IPANs from FVB PD animals were less excitable than IPANs recorded from FVB controls. The sample AP threshold (mean SD (N)) was 46% smaller for FVB control (32.2±20.0 (16)) compared to FVB PD (59.2±46.1 (20)). The number of action potentials produced by a current 2× the threshold intensity was 145% larger, 3.9±5.1 (16) for FVB control versus 1.6±0.6 (19) for FVB PD. The area under of the curve for the sAHP was 42% smaller −49.5±63.7 (16) versus −85.5±78.2 (19). RMP was depolarized by 10% for the FVB control, −56±10 (16) versus −62±6 (20).
Myenteric Primary Afferent Neuron Excitation: Squalamine excites myenteric primary afferent neurons. The effect of squalamine on the excitability of an isolated intestinal segment from the FVB PD mouse was explored using divided hemi-dissection preparations so that neurons are exposed for only half the area of an opened small intestinal segment. In this experiment, the inquiry was whether squalamine influenced the activity of the IPAN through direct interaction or indirectly, by stimulating release of epithelial mediators that influenced IPAN behaviour. Addition of squalamine (30 μM) to Krebs buffer in either the epithelial or the myenteric plexus compartments of the divided hemi-dissection preparation increased IPAN excitability. […] Addition of squalamine decreased the area under the curve of the sAHP by 77% from 86.8±88.2 to 20.3±25.3 mV·s, and depolarised RMP by 12% from −62±7 to −54±6 mV.

[5] = tested on: A53T and WT mice; assay: In vivo fecal pellet output; set-up: species or system mouse
Description: In vivo fecal pellet output: Mice were subjected to the FPO test 1 day prior to the start of dosing with squalamine or vehicle (sterile water) (day 0). Mice were fasted for one hour and then given access to food one hour before FPO testing. On days 1-5 mice were fasted for one hour prior to oral gavage with vehicle or 20, 40, 80, or 120 mg/kg squalamine. Oral gavage occurred between 10:00 to 11:00 am daily. On day 5, the FPO test was performed 1 hour after the final dose was administered. Total number of stool pellets produced in the first 15 min and over a 60 min period was measured in each group. Stool water content was measured by comparing wet and dry weights of the stool.
In Vivo Fecal Pellet Output: Feeding of squalamine increased fecal pellet output, without substantially increasing water content, in vivo. To extend the ex vivo studies to the animal, both A53T and WT mice (N=10 mice/group/dose) were administered squalamine orally by gavage for 5 days (Day 1 to Day 5), at a range of doses from 0, 20, 40, 80 and 120 mg/kg. Fecal pellet output (FPO) within the first 15 minutes was measured following the gavage of vehicle control (on Day 0) or squalamine (on Day 5, at doses of 0, 20, 40, 80, and 120 mg/kg). There was no significant difference in the FPO in the first 15 min in WT and A53T mice between Days 0 and 5, in the groups receiving only vehicle (P>0.05). […] An increase in colonic motility should decrease the time of the stool within the colon and thereby increase the moisture content of the fecal pellets. […] Thus, squalamine appears to increase colonic transit in vivo.

[6] = tested on: colonic propagating contractile clusters (PCCs); assay: Ex vivo colon motility with intraluminal squalamine, control mouse strains
Description: Ex vivo colon motility: For the ex vivo colonic motility experiments, the colon was excised and placed within an organ-bath perfusion chamber filled with warmed, oxygenated Krebs buffer or physiological saline (35° C., 95% 02, 5% CO2). The colon was flushed and cannulated at the oral and anal ends to a manifold and syringe to allow inflow of oxygenated Krebs buffer (or physiological saline) or Krebs and squalamine and to maintain intraluminal pressure. The height of the inflow tube at baseline measurements was parallel to the height of the colon in the organ bath (1.1 cm). Mechanical threshold defined an inflow pressure great enough to generate a contraction in under 30 sec (1.8 cm). Recordings in the first portion of the study were measured at a mechanical threshold causing a pressure differential of 2 hPa (cm H2O). Inflow was raised 2-3 hPa above baseline and outflow was raised a minimum of 0.2 hPa above inflow. Motor patterns were recorded using a Microsoft LifeCam 3000 web camera or a Logitech Quickcam Pro camera positioned 7-8 cm above the tissue. Videos were recorded during a 20-minute Krebs control and a 20-minute Krebs+squalamine period in which solutions were added to the inflow syringe.
Spatiotemporal Maps: Video recordings were used to construct spatiotemporal maps (STmaps) using edge detection software. Parameters of motor patterns including, velocity, amplitude, and frequency were measured using ImageJ and Matlab (Version 12) software.
Statistical Analysis: Effects of squalamine on motility and IPAN excitability in WT and PD model mice were assessed in paired experiments following Krebs control and subsequent squalamine exposure. Unpaired comparisons were performed for experiments comparing PD control and PD model strains. Percent difference was calculated by (treatment-control)/control. Data are presented as mean±SEM. Ex vivo statistical comparisons were performed using paired or unpaired, two-tailed t-tests or 1-way ANOVA using Graphpad Prism software (Version 7.0). In vivo studies were analysed using 1-way and 2-way ANOVA. Statistical significance was determined when p<0.05.

[7] = Intranasal pharmacokinetics in CSF; type: in vivo, Sprague Dawley rats; conditions: 0.5 mg/kg IN, SD rats
Excerpt: (§1) The purpose of this example was to evaluate the in vivo distribution and function of aminosterols, such as Aminosterol 1436 and squalamine, following intranasal administration. This experiment relates to the amount of drug needed to obtain a therapeutic result, based on an IN route of administration. The results described below detail that aminosterols such as Aminosterol 1436 act at the level of the hypothalamus following in vivo administration, regardless of the route of administration.

[8] = Intranasal pharmacokinetics in plasma; type: in vivo, Sprague Dawley rats; conditions: plasma, 0.5 mg/kg IN dose, SD rats
Excerpt: as §1

## CCCCC(F)(F)[C@@]1(O)CC[C@H]2[C@@H](CC(=O)[C@@H]2CCCCCCC(=O)O)O1 [Lubiprostone]
[1]
  share of treated in whom effective: about 50%

## polyethylene glycol [polyethylene glycol (Magrogol)]
[2]
  stool frequency and consistency: shown to provide benefit

## CC(C)[C@@H](CC[C@@H](C)[C@H]1CC[C@H]2[C@@H]3[C@H](O)C[C@H]4C[C@@H](NCCCNCCCCN)CC[C@]4(C)[C@H]3CC[C@]12C)OS(=O)(=O)O [squalamine]
[3]
  mean prokinetic dose: 120 mg
[4]; added to the epithelium
  decrease of AP threshold: 44%
  decrease of sAHP AUC: 77%
  increase of number of APs at 2× threshold current: 87%
[4]; added to the epithelium, before 1.6±0.6
  number of APs at 2× threshold current: 3.1±0.7
[4]; added to the myenteric plexus
  decrease of AP threshold: 37%
  decrease of sAHP AUC: 87%
[4]; added to the myenteric plexus, before 1.4±0.5
  number of APs at 2× threshold current: 4.4±2.8
[4]; added to the myenteric plexus, before −71.9±60.1
  area under the curve of the sAHP: −9.6±15.1 mV·s
[5]; A53T mice, 80 and 120 mg/kg (P=0.023 and 0.0004)
  stool water content: significantly increased water content
[5]; A53T mice, oral gavage 5 days, 20, 40 and 80 mg/kg (P<0.005, P<0.0001, P<0.01)
  FPO in the first 15 min, Day 5 versus Day 0: significantly increased FPO
[5]; PD and wild type mice, 40 mg/kg/d for 5 days
  fecal pellet output: increased their fecal pellet output
[5]; WT mice, 80 mg/kg (P=0.025)
  stool water content: significantly increased water content
[5]; WT mice, oral gavage 5 days, 40 and 120 mg/kg (P<0.01 and P<0.05)
  FPO in the first 15 min, Day 5 versus Day 0: significantly increased FPO
[6]; C57BL/6 (P<0.05)
  increase of PCC velocity: 38%
[6]; C57BL/6 (P=0.27)
  increase of PCC amplitude: 1%
  increase of PCC frequency: 51%
[6]; C57BL/6, control 0.007±0.001
  PCC frequency: 0.010±0.003 Hz
[6]; C57BL/6, control 0.66±0.06
  PCC amplitude: 0.70±0.07 cm
[6]; C57BL/6, control 1.31±0.10
  PCC velocity: 1.80±0.20 mm/s
[6]; CD-1 (P<0.01)
  increase of PCC velocity: 81%
[6]; CD-1 (P=0.06)
  increase of PCC frequency: 63%
[6]; CD-1 (P=0.56)
  increase of PCC amplitude: 12%
[6]; Swiss Webster (P<0.0001)
  increase of PCC velocity: 45%
[6]; Swiss Webster (P<0.01)
  increase of PCC frequency: 35%
[6]; Swiss Webster (P=0.65)
  decrease of PCC amplitude: 3%

## CC(C)[C@@H](CC[C@@H](C)[C@H]1CC[C@H]2[C@@H]3[C@H](O)C[C@H]4C[C@@H](NCCCNCCCCN)CC[C@]4(C)[C@H]3CC[C@]12C)OS(=O)(=O)O.C[C@H](O)C(=O)O.O [squalamine lactate]
[7]
  presence in CSF: No squalamine lactate or Aminosterol 1436 was found in CSF
[8]
  AUCInf: 7863 ng·h/mL
  AUC_% Extrap_obs: 32.7%
  AUClast: 5296 ng·h/mL
  AUClast/D: 10600 kg·ng·h/mL/mg
  Cmax: 1001 ng/mL
  MRTInf_obs: 7.12 h
  T1/2: 4.55 h
  Tmax: 1.00 h
